# According to ChEMBL document CHEMBL4706608, “Design and synthesis of 3-(4-pyridyl)-5-(4-sulfamido-phenyl)-1,2,4-oxadiazole derivatives as novel GSK-3β inhibitors and evaluation of their potential as multifunctional anti-Alzheimer agents” (Eur J Med Chem, 2021):
# pIC50: −log10 of the molar value. Active and inactive are the calls of the source. The calls are words filed in the database; no cut-off is given here.
# Tests used:
# [1] = Cytotoxicity against rat PC-12 cells assessed as cell viability at 50 uM by MTT assay relative to control; format: cell-based; conditions: read-out: Activity
# [2] = Cytotoxicity against rat PC-12 cells assessed as cell viability at 30 uM by MTT assay relative to control; format: cell-based; conditions: read-out: Activity
# PC-12 [3] = assay: Neuroprotective activity against H2O2-induced cytotoxicity in rat PC12 cells assessed as increase in cell viability at 30 uM preincubated for 3 hrs followed by H2O2 addition and measured after 24 hrs by MTT assay (reference value: 24.8 to 41.7%); format: functional
# [4] = molecular target: Glycogen synthase kinase-3 beta (Homo sapiens, UniProt P49841); assay: Inhibition of GSK3beta (unknown origin) measured after 40 mins by ADP-Glo assay
# Glycogen synthase kinase-3 beta, sequence (P49841 whole entry): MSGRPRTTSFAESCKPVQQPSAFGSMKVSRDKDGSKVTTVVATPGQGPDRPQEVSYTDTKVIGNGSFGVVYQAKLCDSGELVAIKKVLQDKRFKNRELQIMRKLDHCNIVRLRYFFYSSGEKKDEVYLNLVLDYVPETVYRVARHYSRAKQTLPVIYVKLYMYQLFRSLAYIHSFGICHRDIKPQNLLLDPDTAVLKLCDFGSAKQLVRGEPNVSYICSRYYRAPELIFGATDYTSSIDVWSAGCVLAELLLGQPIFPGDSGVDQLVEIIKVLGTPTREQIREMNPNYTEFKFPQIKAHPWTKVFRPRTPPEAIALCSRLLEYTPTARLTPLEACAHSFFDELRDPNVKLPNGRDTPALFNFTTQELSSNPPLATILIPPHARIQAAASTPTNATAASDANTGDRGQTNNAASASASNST
# BV-2 = assay: Anti-neuroinflammation in mouse BV2 cells assessed as inhibition of LPS-induced NO production preincubated for 1 hr followed by LPS addition measured after 24 hrs by Griess reagent based assay; format: functional, cell-based
# PC-12 [5] = assay: Neuroprotective activity against H2O2-induced cytotoxicity in rat PC12 cells assessed as increase in cell viability at 10 uM preincubated for 3 hrs followed by H2O2 addition and measured after 24 hrs by MTT assay (reference value: 24.8 to 41.7%); format: functional
# HepG2 [6] = assay: Increase in glucose consumption in human HepG2 cells at 20 uM after 24 hrs by glucose oxidase assay; format: functional, cell-based
# HepG2 [7] = assay: Increase in glucose consumption in human HepG2 cells at 1 mM after 24 hrs by glucose oxidase assay (reference value: 1.36 mM); format: functional
SMILES,pIC50 [4],pIC50 (BV-2),viability at 50 µM [1] [%],viability at 30 µM [2] [%],Activity (PC-12 [3]) [%],Activity (PC-12 [5]) [%],Activity (HepG2 [6]),Activity (HepG2 [7]) [mM]
O=c1c(O)c(-c2ccc(O)c(O)c2)oc2cc(O)cc(O)c12 [QUERCETIN],–,–,99.5,99.1,65.7,53.4,–,–
CC(C)(C)c1ccc(S(=O)(=O)Nc2ccc(-c3nc(-c4ccnc(Nc5ccc(Cl)cc5F)c4)no3)cc2)cc1,5.55,5.36,88.5,98.5,49.6,46,–,–
CC(C)(C)c1ccc(S(=O)(=O)Nc2ccc(-c3nc(-c4ccnc(Nc5ccc(F)c(F)c5)c4)no3)cc2)cc1,5.88,5.61,92.7,97.7,60.4,49.6,inactive,–
CN(C)C(=N)NC(=N)N [METFORMIN],–,–,–,–,–,–,–,3.28
O=S(=O)(Nc1ccc(-c2nc(-c3ccnc(Nc4ccc(OC(F)(F)F)cc4)c3)no2)cc1)c1ccc(F)cc1,5.57,5.36,97.9,99.9,67.3,59.4,–,–
O=[N+]([O-])c1ccc(S(=O)(=O)Nc2ccc(-c3nc(-c4ccnc(Nc5ccc(OC(F)(F)F)cc5)c4)no3)cc2)cc1,< 4.30,5.12,90.5,98.5,53.4,38.6,inactive,–
COc1ccc(Nc2cc(-c3noc(-c4ccc(NS(=O)(=O)c5ccc(C(C)(C)C)cc5)cc4)n3)ccn2)cc1,5.00,5.21,91.6,98.6,48.1,44.5,–,–
O=S(=O)(Nc1ccc(-c2nc(-c3ccnc(Nc4ccc(OC(F)(F)F)cc4)c3)no2)cc1)c1ccc(F)c(Cl)c1,4.72,5.30,92.1,98.1,40.1,36.9,–,–
CC(C)(C)c1ccc(S(=O)(=O)Nc2ccc(-c3nc(-c4ccnc(Nc5ccc(C(F)(F)F)cc5)c4)no3)cc2)cc1,5.83,5.06,94.1,99.1,71.9,63.2,–,–
Cc1ccc(Nc2cc(-c3noc(-c4ccc(NS(=O)(=O)c5ccc(C(C)(C)C)cc5)cc4)n3)ccn2)cc1,5.34,5.82,87.9,97.9,64.4,59.4,–,–
Oc1ccc(/C=C/c2cc(O)cc(O)c2)cc1 [RESVERATROL],–,4.99,–,–,–,–,–,–
O=S(=O)(Nc1ccc(-c2nc(-c3ccnc(Nc4ccc(OC(F)(F)F)cc4)c3)no2)cc1)c1ccc(Cl)s1,5.53,5.21,87.9,97.9,32.7,27.1,–,–
O=[N+]([O-])c1cccc(S(=O)(=O)Nc2ccc(-c3nc(-c4ccnc(Nc5ccc(OC(F)(F)F)cc5)c4)no3)cc2)c1,5.08,5.67,94.3,94.3,64.7,53.7,–,–
CC(C)(C)c1ccc(S(=O)(=O)Nc2ccc(-c3nc(-c4ccnc(Nc5ccc(OC(F)(F)F)cc5)c4)no3)cc2)cc1,5.12,6.14,95.3,96.3,63.1,48.1,–,–

# Further lines, with some results ahead:
pIC50 [4],pIC50 (BV-2),SMILES,viability at 50 µM [1] [%],viability at 30 µM [2] [%],Activity (PC-12 [3]) [%],Activity (PC-12 [5]) [%],Activity (HepG2 [6]),Activity (HepG2 [7]) [mM]
5.41,5.05,CC(C)(C)c1ccc(S(=O)(=O)Nc2ccc(-c3nc(-c4ccnc(Nc5ccc(F)c(C(F)(F)F)c5)c4)no3)cc2)cc1,75.9,98.9,61.7,48.9,–,–
6.03,4.98,Cc1cccc(Nc2cc(-c3noc(-c4ccc(NS(=O)(=O)c5ccc(C(C)(C)C)cc5)cc4)n3)ccn2)c1,93.8,93.8,68.5,52.3,–,–
5.64,5.22,Cc1ccccc1Nc1cc(-c2noc(-c3ccc(NS(=O)(=O)c4ccc(C(C)(C)C)cc4)cc3)n2)ccn1,99.3,100,69.3,51.5,–,–
4.81,5.49,COc1ccc(S(=O)(=O)Nc2ccc(-c3nc(-c4ccnc(Nc5ccc(OC(F)(F)F)cc5)c4)no3)cc2)cc1,92.2,99.2,68.6,55.8,Active,–
5.68,5.11,CC(C)c1ccc(Nc2cc(-c3noc(-c4ccc(NS(=O)(=O)c5ccc(C(C)(C)C)cc5)cc4)n3)ccn2)cc1,78.8,98.8,54.4,48.3,–,–
5.06,5.37,O=S(=O)(Nc1ccc(-c2nc(-c3ccnc(Nc4ccc(OC(F)(F)F)cc4)c3)no2)cc1)c1ccc(OC(F)(F)F)cc1,100,98.7,32.4,30.6,–,–
6.25,4.96,CC(C)(C)c1ccc(Nc2cc(-c3noc(-c4ccc(NS(=O)(=O)c5ccc(C(C)(C)C)cc5)cc4)n3)ccn2)cc1,99.7,96.2,70.1,61.3,Active,–
5.66,5.12,CC(=O)Nc1cccc(S(=O)(=O)Nc2ccc(-c3nc(-c4ccnc(Nc5ccc(OC(F)(F)F)cc5)c4)no3)cc2)c1,79.2,93.2,54.7,51.6,inactive,–
5.49,5.27,CCc1ccc(Nc2cc(-c3noc(-c4ccc(NS(=O)(=O)c5ccc(C(C)(C)C)cc5)cc4)n3)ccn2)cc1,83.6,98.6,36.6,31.5,–,–
5.51,5.29,O=S(=O)(Nc1ccc(-c2nc(-c3ccnc(Nc4ccc(OC(F)(F)F)cc4)c3)no2)cc1)c1ccc(Br)cc1,82.5,102,55.8,52.3,–,–
5.92,5.88,COC(=O)c1ccc(S(=O)(=O)Nc2ccc(-c3nc(-c4ccnc(Nc5ccc(OC(F)(F)F)cc5)c4)no3)cc2)s1,98.6,97.2,30.6,25.6,–,–
5.92,5.60,O=S(=O)(Nc1ccc(-c2nc(-c3ccnc(Nc4ccc(OC(F)(F)F)cc4)c3)no2)cc1)c1ccccc1OC(F)(F)F,85.6,91.6,49.8,40.4,–,–
5.12,5.89,O=S(=O)(Nc1ccc(-c2nc(-c3ccnc(Nc4ccc(OC(F)(F)F)cc4)c3)no2)cc1)c1cccs1,94.5,97.5,54.9,57,Active,–
5.58,5.83,O=S(=O)(Nc1ccc(-c2nc(-c3ccnc(Nc4ccc(OC(F)(F)F)cc4)c3)no2)cc1)c1cccc(C(F)(F)F)c1,90.4,97.4,60.7,54.6,inactive,–
